After the bases stand the sugars from the 5' end (letter, count) and the backbone: PS all phosphorothioate, else s phosphorothioate and o phosphodiester by linkage. Methylation of C is not given here. e = 2'-O-(2-methoxyethyl) (MOE); k = constrained ethyl (cEt); d = 2'-deoxy (DNA); m = 2'-O-methyl

One data set concerns the target HSD17B13. The conditions noted are these: ASO, HepaRG, 0.02 µM.
Take GTAATTTTCAGATCCC (sugars k3 d10 k3, PS): the target mRNA inhibition turned out to be 24%.

Regarding GATGATGTTCATGGCT (sugars k3 d10 k3, PS), the target mRNA inhibition stood at 3%.

On to “ACAGATTGGAATGCTA (sugars k3 d9 k3 e1, PS)”, for which the target mRNA inhibition amounted to 18%.

The data set is the same for the next values; noted with them: ASO, HepaRG, 0.078 µM.
Turning to GTAATTTTCAGATCCC (sugars k3 d10 k3, PS), the target mRNA inhibition worked out at 43%.

GATGATGTTCATGGCT (sugars k3 d10 k3, PS): the target mRNA inhibition worked out at 17%.

The sequence “ACAGATTGGAATGCTA (sugars k3 d9 k3 e1, PS)” showed a target mRNA inhibition of 21%.

Still in this data set, the particulars now being: ASO, HepaRG, 0.313 µM.
For GTAATTTTCAGATCCC (sugars k3 d10 k3, PS), the target mRNA inhibition came out at 69%.

Turning to GATGATGTTCATGGCT (sugars k3 d10 k3, PS), the target mRNA inhibition turned out to be 70%.

With “ACAGATTGGAATGCTA (sugars k3 d9 k3 e1, PS)”, the target mRNA inhibition is 38%.

The same data set, now with this note: ASO, HepaRG, 1 µM.
For TGGTAAGTATTCCATC (sugars k3 d10 k3, PS), the target mRNA inhibition was 26%.

On to AGTAATGAGAACAATC (sugars k3 d10 k3, PS), for which the target mRNA inhibition was determined as 45%.

ATACAGGCCATAATCT (sugars k3 d10 k3, PS) returned a target mRNA inhibition of 0%.

On to CTACACTAATATTGAG (sugars k3 d10 k3, PS), for which the target mRNA inhibition turned out to be 20%.

The sequence GAGCCTAAAATTGTCT (sugars k3 d10 k3, PS) gave a target mRNA inhibition of 49%.

With TGCCTGCCTATTCCAT (sugars k3 d10 k3, PS), the target mRNA inhibition stood at 40%.

Take ATCACAAGTAAGGTAA (sugars k3 d10 k3, PS): the target mRNA inhibition was 62%.

Sequence GTGCATCTTAAGATAC (sugars k3 d10 k3, PS) registered a target mRNA inhibition of 47%.

GTAAACTAAAGTACTT (sugars k3 d10 k3, PS): the target mRNA inhibition turned out to be 0%.

“AAGAGTCAGTATCCTC (sugars k3 d9 k3 e1, PS)” showed a target mRNA inhibition of 67%.

The sequence TACACCACACTAATGA (sugars k3 d10 k3, PS) registered a target mRNA inhibition of 26%.

As to ATAGAGTCGGTCACCT (sugars k3 d10 k3, PS), the target mRNA inhibition was 60%.

ATGGATCTAGAACACT (sugars k3 d10 k3, PS) displayed a target mRNA inhibition of 43%.

In turn, ATTAAGCATTGTTAGC (sugars k3 d10 k3, PS) yielded a target mRNA inhibition of 0%.

“AATAATAGCTCTATTG (sugars k3 d1 m1 d8 k3, PS)” showed a target mRNA inhibition of 16%.

ATAATGGGCAGAGCTG (sugars k3 d10 k3, PS) came in with a target mRNA inhibition of 53%.

Consider GAGAGAACTTATACAA (sugars k3 d10 k3, PS), for which the target mRNA inhibition was 37%.

As to GACAATACAGGATAGA (sugars k3 d10 k3, PS), the target mRNA inhibition was determined as 43%.

Sequence GCCAAGCTTTGTGTCA (sugars k3 d10 k3, PS) displayed a target mRNA inhibition of 64%.

The sequence TACGCATGCGCAGTGA (sugars k3 d10 k3, PS) came in with a target mRNA inhibition of 60%.

As to GCACAAGCACACTGTA (sugars k3 d10 k3, PS), the target mRNA inhibition was 7%.

In turn, “ATCCTATATACATCCA (sugars kkdddddddddkekek, PS)” yielded a target mRNA inhibition of 65%.

ATTGATTCGAAACTAT (sugars k3 d10 k3, PS) had a target mRNA inhibition of 22%.

The sequence “CATCTCTGGGACCAAG (sugars k3 d9 k3 e1, PS)” returned a target mRNA inhibition of 42%.

Take “AAAGACTTTGAGACTC (sugars k3 d9 k3 e1, PS)”: the target mRNA inhibition is 67%.

GCAAATGTAAGAAGCC (sugars k3 d10 k3, PS) gave a target mRNA inhibition of 4%.

As for CATAAGAGATGAGTAG (sugars k3 d10 k3, PS), the target mRNA inhibition turned out to be 44%.

For “TACCUCTAAGTTAGCC (sugars k3 d1 m1 d8 k3, PS)”, the target mRNA inhibition is 13%.

In turn, CAAAGTTTGGGCAGAG (sugars k3 d10 k3, PS) had a target mRNA inhibition of 44%.

TAGTTTGGTGGGCATG (sugars k3 d10 k3, PS) registered a target mRNA inhibition of 28%.

GGACCAATATAATCCA (sugars k3 d10 k3, PS) registered a target mRNA inhibition of 20%.

Turning to GTAAGAGTCAGTATCC (sugars k3 d10 k3, PS), the target mRNA inhibition was determined as 47%.

GTTATAAGTTTCATGT (sugars k3 d10 k3, PS) yielded a target mRNA inhibition of 21%.

Sequence GATGAGGTAAGGAATC (sugars k3 d10 k3, PS) had a target mRNA inhibition of 0%.

The sequence ATGTTTTGATCCAGGG (sugars k3 d10 k3, PS) returned a target mRNA inhibition of 46%.

TAATCTTGAGGCAGGA (sugars k3 d10 k3, PS) gave a target mRNA inhibition of 17%.

Sequence “TTTCTTATGTAATAGC (sugars k3 d9 k3 e1, PS)” displayed a target mRNA inhibition of 60%.

As for TCCTAGGATGTTGACC (sugars k3 d10 k3, PS), the target mRNA inhibition is 0%.

Regarding AGCTTTGCAGCATTGA (sugars k3 d10 k3, PS), the target mRNA inhibition came out at 62%.

Sequence ATTCTATAGCTAAGTA (sugars k3 d10 k3, PS) showed a target mRNA inhibition of 23%.

“AGAGGATAGTCCATGC (sugars k3 d1 m1 d8 k3, PS)”: the target mRNA inhibition is 53%.

CAGTAAAATTATGCCT (sugars k3 d10 k3, PS) returned a target mRNA inhibition of 38%.

As to AGTTTAGAAGTCAAAC (sugars k3 d10 k3, PS), the target mRNA inhibition worked out at 23%.

AAGTTATTATCCCCAC (sugars k3 d10 k3, PS) displayed a target mRNA inhibition of 60%.

On to “CGTTUGACTGCTGCTA (sugars k3 d1 m1 d8 k3, PS)”, for which the target mRNA inhibition is 54%.

The sequence TACGACTTCATCTGTC (sugars k3 d10 k3, PS) came in with a target mRNA inhibition of 29%.

Consider CTCATTATAAGCTAAC (sugars k3 d10 k3, PS), for which the target mRNA inhibition came to 13%.

TAAGTTATTATCCCCA (sugars k3 d10 k3, PS) came in with a target mRNA inhibition of 70%.

In turn, “AACAGTCTTAAACCTT (sugars kkdddddddddkekek, PS)” showed a target mRNA inhibition of 37%.

ACTTCACCAACGACTC (sugars k3 d10 k3, PS): the target mRNA inhibition is 15%.

Sequence ATTTAAAATAGAGTCG (sugars k3 d10 k3, PS) showed a target mRNA inhibition of 24%.

Consider GATACATACCACTCTT (sugars k3 d10 k3, PS), for which the target mRNA inhibition was 52%.

Turning to GGGCTAGAACTTAAAA (sugars k3 d10 k3, PS), the target mRNA inhibition was determined as 35%.

Take AGGTAAACTAAAGTAC (sugars k3 d10 k3, PS): the target mRNA inhibition was 6%.

GGCTAGGATTAATCAT (sugars k3 d10 k3, PS) yielded a target mRNA inhibition of 44%.

Sequence TGATTAAGCAGAATTG (sugars k3 d10 k3, PS) gave a target mRNA inhibition of 57%.

Consider GAAGTGCTTTTGTGAT (sugars k3 d10 k3, PS), for which the target mRNA inhibition amounted to 34%.

Sequence CTAATGTATGAGGTCT (sugars k3 d10 k3, PS) registered a target mRNA inhibition of 46%.

As to TAGAGTTGCACCGTTT (sugars k3 d10 k3, PS), the target mRNA inhibition came to 58%.

Sequence ATTGAATTCACTATCT (sugars k3 d10 k3, PS) returned a target mRNA inhibition of 31%.

CCAATATATACTGACA (sugars k3 d10 k3, PS) registered a target mRNA inhibition of 68%.

Sequence TGCTACTCTAGGAGAT (sugars k3 d10 k3, PS) returned a target mRNA inhibition of 60%.

Sequence AGAATAGGAGAGTCTT (sugars k3 d10 k3, PS) registered a target mRNA inhibition of 64%.

As for TATGAAGTTAGTATAG (sugars k3 d10 k3, PS), the target mRNA inhibition is 30%.

Sequence “GAACAATATGGGATGA (sugars k3 d1 m1 d8 k3, PS)” returned a target mRNA inhibition of 50%.

With TTAGTTAGAATAGTCT (sugars k3 d10 k3, PS), the target mRNA inhibition is 8%.

CTAATTTAGTCAACTT (sugars k3 d10 k3, PS) yielded a target mRNA inhibition of 40%.

With GTAATTTTCAGATCCC (sugars k3 d10 k3, PS), the target mRNA inhibition is 82%.

As for GATAGATCTCTTCTCT (sugars k3 d10 k3, PS), the target mRNA inhibition worked out at 0%.

In the case of “AATTGATACACCAATG (sugars k3 d1 m1 d8 k3, PS)”, the target mRNA inhibition worked out at 40%.

“GCACCGTTTTGGGCTA (sugars k3 d9 k3 e1, PS)” showed a target mRNA inhibition of 45%.

In the case of ACAGCATCAAGACATT (sugars k3 d10 k3, PS), the target mRNA inhibition was 53%.

Regarding GCTATAACTGGAAGGA (sugars k3 d10 k3, PS), the target mRNA inhibition turned out to be 58%.

GATGATGTTCATGGCT (sugars k3 d10 k3, PS) came in with a target mRNA inhibition of 86%.

In turn, TCCATAAAGCTGGATT (sugars k3 d10 k3, PS) came in with a target mRNA inhibition of 13%.

Take “GGTGGTAACGGTGATC (sugars kkdddddddddkekek, PS)”: the target mRNA inhibition came out at 39%.

For the sequence ATTGTAATCTTGAGGC (sugars k3 d10 k3, PS), the target mRNA inhibition was 39%.

In turn, “GAACAATATGGGATGA (sugars k3 d9 k3 e1, PS)” registered a target mRNA inhibition of 52%.

“GTTGATATTCTGTGGC (sugars k3 d1 m1 d8 k3, PS)” had a target mRNA inhibition of 68%.

Take ACGAAGCCTGAATGCC (sugars k3 d10 k3, PS): the target mRNA inhibition turned out to be 52%.

On to “ACAGATTGGAATGCTA (sugars k3 d9 k3 e1, PS)”, for which the target mRNA inhibition came out at 68%.

Sequence “ACGGUGATCAAATGTA (sugars k3 d1 m1 d8 k3, PS)” registered a target mRNA inhibition of 18%.

Consider CAAAACCTTTGTTGCC (sugars k3 d10 k3, PS), for which the target mRNA inhibition was determined as 14%.

In the case of GGGACCAATATAATCC (sugars k3 d10 k3, PS), the target mRNA inhibition came to 31%.

In turn, “CCTCGATCCTATATAC (sugars k3 d1 m1 d8 k3, PS)” returned a target mRNA inhibition of 9%.

TCATCCTTGGTGCTGA (sugars k3 d10 k3, PS) displayed a target mRNA inhibition of 12%.

Consider TTTAACTTTCCTCCGT (sugars k3 d10 k3, PS), for which the target mRNA inhibition was 16%.

The sequence CGCCTAGTTTTCGGCA (sugars k3 d10 k3, PS) showed a target mRNA inhibition of 23%.

CACCATGAAGGACTCC (sugars k3 d10 k3, PS) returned a target mRNA inhibition of 48%.

Regarding CTGCAACTTTTAGTCA (sugars k3 d10 k3, PS), the target mRNA inhibition was 21%.

Consider “GTCACCTTTCATAATG (sugars k3 d1 m1 d8 k3, PS)”, for which the target mRNA inhibition amounted to 40%.

Still in this data set, the particulars now being: ASO, HepaRG, 1.25 µM.
In turn, GTAATTTTCAGATCCC (sugars k3 d10 k3, PS) yielded a target mRNA inhibition of 88%.

Regarding GATGATGTTCATGGCT (sugars k3 d10 k3, PS), the target mRNA inhibition stood at 85%.

For the sequence “ACAGATTGGAATGCTA (sugars k3 d9 k3 e1, PS)”, the target mRNA inhibition amounted to 62%.

The data set is the same for the next values; noted with them: ASO, HepaRG, 5 µM.
GTAATTTTCAGATCCC (sugars k3 d10 k3, PS) yielded a target mRNA inhibition of 88%.

Sequence “ACAGATTGGAATGCTA (sugars k3 d9 k3 e1, PS)” had a target mRNA inhibition of 76%.
